# Where “and” joins values, the source holds several entries; their conditions need not be identical. Equal entries are not always repeated. Where two headings read alike, the source gives them in different places.
# Legend:
# [1] = cited from earlier work
# [2] = D0.5 in 1,4-dioxane/water (closing into colorless spirolactone form); type: physicochemical
# [3] = Absorption, emission and fluorescence quantum yield of the dyes; type: physicochemical; conditions: for fluorescence quantum yield relative to Oxazine 1: PBS 7.4, Oxazine 1 Φfl=0.14 in ethanol; for fluorescence quantum yield: in PBS / aqueous buffers
# Description: Absorption spectra were recorded with a Varian Cary 4000 UV-Vis double-beam spectrophotometer (Agilent Technologies, USA). For the determination of the absorption spectra, quartz cells with a 1 cm path length were used. Emission spectra and fluorescence quantum yield were obtained on a Quantaurus-QY Absolute PL quantum yield spectrometer C11347 (Hamamatsu Photonics, Japan) or on a Varian Cary Eclipse fluorescence spectrometer (Agilent Technologies, USA).
# [4] = test system: vimentin-HaloTag fusion protein in U2OS cells; test: Live-cell labeling, confocal and STED imaging, U2OS cells; type: cell-based; conditions: 1 μM, 20 minutes at 37° C.
# Description: (§1) Either HeLa or U2OS cells were used. Cells were grown on #1.5 coverslips and cultured at 37° C. with 5% CO2 in DMEM (Dulbecco's modified Eagle's medium) supplemented with 10% FBS (fetal bovine serum), 1% sodium pyruvate and 1% penicillin/streptomycin. The U2OS cell line is a stable cell line which has a stable expression of the vimentin-HaloTag fusion protein (M. Ratz, I. Testa, S. W. Hell, S. Jakobs, Sci. Rep. 2015, 5, 9592). For the expression of vimentin-HaloTag fusion protein in HeLa cells, cells were transfected with 3 μg DNA/well using TurboFect™ Transfection Reagent (Fermentas/Thermo Scientific™, Life Technologies brand) in a 6 well plate. […]
# (§2) Fluorescence detection was done in two spectral detection channels, 605-625 nm and 650-720 nm. […]
# 14a-Halo was excited with a pulsed 561 nm laser and fluorescence was detected in both detection windows: 605-625 nm and 650-720 nm. […] For the STED image the fluorescence counts of 3 scans per line were accumulated with a pixel dwell time of 15 μs. […]
# 6-ROX-Halo was excited with a pulsed 561 nm laser and fluorescence was detected in two detection windows: 605-625 nm and 650-720 nm. […] For the STED image the fluorescence counts of 3 scans per line were accumulated with a pixel dwell time of 15 μs. […]
# 19-Halo was excited with a pulsed 640 nm laser and fluorescence was detected from 650-720 nm. […]
# [5] = test system: tubulin filaments in HeLa cells; test: Live-cell tubulin labeling, confocal and STED imaging, HeLa cells; type: cell-based; conditions: 1-5 μM, 20 minutes at 37° C.
# Description: as §1, §2
# 19-Tubulin was excited with a pulsed 640 nm laser and fluorescence was detected from 650-720 nm. […] For the STED image the fluorescence counts of 4 scans per line were accumulated with a pixel dwell time of 7 μs. […]
# 33-Tubulin was excited with a pulsed 640 nm laser and fluorescence was detected from 650-720 nm. […] The STED image was recorded with a pixel dwell time of 15 μs. […]
# [6] = Formation and stability of the NHS ester; type: physicochemical
# Description: • Three stock solutions (A, B and C) were prepared. Solution A: 22 mg HATU (1-[bis(dimethylamino)methylene]-1H-1,2,3-triazolo[4,5-b]pyridinium 3-oxid hexafluorophosphate) in dry DMF (0.10 mL); solution B: Et3N (10 mg) in dry DMF (0.10 mL); solution C: N-hydroxysuccinimide (19 mg) in dry DMF (0.10 mL). To a solution of dye 5 (1.7 mg, 2.6 μmol) in dry DMF (0.10 mL), solutions A, B and C were added successively (14 μL of each solutions) under argon, and the mixture was stirred for 30 min at room temperature. HPLC analysis indicated the conversion degree of 94-95%. […] After removing DMF in vacuo, amide 5-Halo was isolated by preparative HPLC (˜1 mg, 46%), dissolved in DMSO (400 μL), and this stock-solution was used (after dilution with aqueous PBS to 1-5 μM) in labeling experiments with living cells (see section with imaging results). ESI-MS (C41H44C1F6N308, 855.27), positive mode: m/z (rel. int., %)=856 (100) [M+H]^+. HR-MS, ESI (positive mode): m/z=878.2591 (found [M+Na]^+), 878.2613 (calc.).
# [7] = Solubility in water and organic solvents; type: physicochemical; conditions: water, aqueous solutions, alcohols, DMSO, DMF, organic solvents as stated
# [8] = commercial dyes, solvent not stated
# [9] = aqueous solutions, dye 5 isomer 3
# [10] = aqueous PBS buffer, parent Q-rhodamine
compound,measurement,setting,value
"COc1cc2c(c(Cl)c1O)Oc1c(cc(OC)c(O)c1Cl)C21OC(=O)c2ccc(C(=O)O)cc21 [Compound 6-JOE, 6-JOE]",absorption maximum,[1]; [8],520 nm
same,emission maximum,[1]; [8],548 nm
same,extinction coefficient ε,[1]; [8],75 000 M^−1 cm^−1
C[Si]1(C)c2cc(N3CC(O)C3)ccc2C2(OC(=O)c3ccc(C(=O)O)cc32)c2ccc(N3CC(O)C3)cc21 [Compound 42],"D0.5 in 1,4-dioxane/water",[2],72.4
same,fluorescence quantum yield relative to Oxazine 1,[3],0.42
same,absorption maximum λmax,[3]; PBS buffer pH 7.4,641 nm
same,emission maximum λem,[3]; PBS buffer pH 7.4,662 nm
same,extinction coefficient ε,[3]; PBS buffer pH 7.4,51500 M⁻¹ cm⁻¹ and 51000 M⁻¹ cm⁻¹
same,fluorescence quantum yield,[3],0.42
CN(C)c1ccc2[c](c1)[Ge]([CH3])([CH3])[c]1cc(N(C)C)ccc1C21OC(=O)c2ccc(C(=O)NCCOCCOCCCCCCCl)cc21 [Compound 19-Halo],imaging performance in living cells (confocal and STED),[4],high contrast images
O=C(O)c1ccccc1C1=c2cc3c4c(c2Oc2c1cc1c5c2CCCN5CCC1)CCC[N+]=4CCC3.[Cl-] [Rhodamine 101],fluorescence quantum yield,[1]; in both organic and aqueous solutions,more than 0.90
[CH3][Ge]1([CH3])[c]2cc(N3CC(O)C3)ccc2C2(OC(=O)c3ccc(C(=O)O)cc32)c2ccc(N3CC(O)C3)c[c]21 [Compound 33],absorption maximum λmax,[3]; PBS buffer pH 7.4,631 nm
same,emission maximum λem,[3]; PBS buffer pH 7.4,651 nm
same,extinction coefficient ε,[3]; PBS buffer pH 7.4,61000 M⁻¹ cm⁻¹
same,"fluorescence quantum yield Φfl, absolute value",[3]; PBS buffer pH 7.4,0.60
same,fluorescence quantum yield,[3],0.60
same,imaging performance in living cells (confocal and STED),[5],higher brightness
"O=C(O)c1ccc(C(=O)[O-])c(C2=c3cc4c(cc3Oc3cc5c(cc32)CC(O)CN5CC(F)(F)F)=[N+](CC(F)(F)F)CC(O)C4)c1 (stereo not drawn) [Compound 5, N,N′-Bis-(2,2,2-trifluoroethyl)-6′-carboxy-Q-rhodamine-β,β′-diol]",absorption maximum λmax,[3]; [9],532 nm
same,emission maximum λmax,[3]; [9],553 nm
same,extinction coefficient ε,[3]; [9],56000 M⁻¹ cm⁻¹
same,"fluorescence quantum yield Φfl, absolute value","[3]; aqueous solutions, excitation at 488 nm, dye 5 isomer 3",0.89
same,stability of N-hydroxysuccinimidyl (NHS) ester,[6],forms a stable NHS ester
same,solubility,[7],water-soluble
same,solubility,[7]; listed as 5-OH,much better soluble
"C[Si]1(C)c2cc(N3CCC3)ccc2C2(OC(=O)c3ccccc32)c2ccc(N3CCC3)cc21 [JF646, reference compound]",fluorescence quantum yield,[3],0.54
"N-Hydroxysuccinimidyl eater of N,N′-bis-(2,2,2-trifluoro-ethyl)-6′-carboxy-Q-rhodamine-β,β′-diol [Compound 5-NHS]",stability of N-hydroxysuccinimidyl (NHS) ester,[6],stable
5(6)-carboxy-Q-rhodamine,stability of N-hydroxysuccinimidyl (NHS) ester,[6],does not form a stable N-hydroxysuccinimidyl ester
same,absorption maximum,[1]; [10],540 nm
same,emission maximum,[1]; [10],561 nm
same,extinction coefficient ε,[1]; [10],70 000 M^−1 cm^−1
same,fluorescence quantum yield,[1]; [10],0.79
[CH3][Ge]1([CH3])[c]2cc(N3CC(O)C3)ccc2C2(OC(=O)c3ccc(C(=O)NCCOCCOCCCCCCCl)cc32)c2ccc(N3CC(O)C3)c[c]21 [Compound 33-Halo],absorption maximum λmax,[3]; PBS buffer pH 7.4,639 nm
same,emission maximum λem,[3]; PBS buffer pH 7.4,660 nm
"CN(C)c1ccc2c(c1)[Si](C)(C)c1cc(N(C)C)ccc1C21OC(=O)c2ccccc21 [SiR, reference compound]","D0.5 in 1,4-dioxane/water",[2],64.5
same,absorption maximum λmax,[3]; PBS buffer pH 7.4,645 nm
same,emission maximum λem,[3]; PBS buffer pH 7.4,661 nm
same,extinction coefficient ε,[3]; PBS buffer pH 7.4,93000 M⁻¹ cm⁻¹
same,fluorescence quantum yield,[3],0.41
CN(C)c1ccc2[c](c1)[Ge]([CH3])([CH3])[c]1cc(N(C)C)ccc1C21OC(=O)c2ccc(C(=O)O)cc21 [Compound 19],"D0.5 in 1,4-dioxane/water",[2],65.2
same,fluorescence quantum yield relative to Oxazine 1,[3],0.43
same,absorption maximum λmax,[3]; PBS buffer pH 7.4,634 nm
same,emission maximum λem,[3]; PBS buffer pH 7.4,655 nm
same,extinction coefficient ε,[3]; PBS buffer pH 7.4,97000 M⁻¹ cm⁻¹
same,fluorescence quantum yield,[3],0.43

# Reference: patent publication US20190367737A1, “CELL-PENETRATING FLUORESCENT DYES WITH SECONDARY ALCOHOL FUNCTIONALITIES” (Max-Planck-Gesellschaft zur foerderung der Wissenschaften …, priority 2016, published 2019)
